In US12650424B2, “Method and system for determining intracellular mediators' activity” (ECOLE POLYTECHNIQUE FEDERALE DE LAUSANNE (EPFL), priority 2020, dated 2026):

What was measured:
angiotensin receptor = conditions: plasma membranes of HEK cells on beads
[1] = tested on: Protease-activated receptor PAR; assay: dose response of GPCR activation in plasma membranes on immunostained WGA-beads (Gαq release); assay type: biochemical; conditions: plasma membranes of HEK cells on beads; different concentrations
Text: FIG. 3. Schematic representation of the synthetic GPCR screening platform. 1. […] 2. […] 3. […] This leads to fluorescence labeled Gα-protein subunits. 4. […] 5.

| Substance | receptor activation triggering release of Gαi (angiotensin receptor) | receptor activation triggering release of Gαq [1] |
| --- | --- | --- |
| angiotensin | activated in a dose-dependent manner |  |
| thrombin |  | activated by different concentrations |
